Source: patent US4499087A, “7-Phenyl-7-phenoxymethyl-hexahydro-1,4-oxazepines and their use” (BASF Aktiengesellschaft, priority 1982, dated 1985)
Counter-ions that a name gives are not always drawn.

Columns and labels:
serotonin uptake = test: Inhibition of serotonin uptake in rat brain synaptosomes (cortex, 3H serotonin); assay type: biochemical; conditions: 3H serotonin about 10 nM, 37° C., read-out: Serotonin IC50 (inhibition of neurotransmitter uptake in synaptosomes)
Procedure: (§1) The action mechanism of a group of therapeutically much used antidepressants must be regarded as being the inhibition of the neuronal uptake of transmitter substances (norepinephrine and/or serotonin). These properties were utilized in biological test models for characterizing potential antidepressants (inhibition of neurotransmitter uptake in rat brain synaptosomes):
(§2) Hippocampus and cortex from rat brain were prepared, and were homogenized in 0.32M sucrose solution. By means of differential centrifuging, synaptosomes were obtained, and these were suspended in buffer solution. The synaptosomes are able actively to take up added neurotransmitter substances (eg. norepinephrine or serotonine) from the surrounding medium. It is possible to antagonize this process by uptake inhibitors, as a function of concentration. Various concentrations of the test substances were added to the synaptosomes, and the mixtures were then incubated with ^3 H norepinephrine (hippocampus) or ^3 H serotonin (cortex) at 37° C. The substrate concentration was about 10 nM. The uptake was terminated by diluting the mixture with ice-cooled buffer solution, after which the synaptosomes were separated off by centrifuging and the ^3 H activity in the sediment was measured. A blank value was determined by incubation at 0° C.
(§3) From the inhibitory values determined for various inhibitor concentrations compared with the control, the mean inhibitory concentration (IC50) was calculated by linear regression following logit-log transformation.

norepinephrine uptake = test: Inhibition of norepinephrine uptake in rat brain synaptosomes (hippocampus, 3H norepinephrine); assay type: biochemical; conditions: for IC50: rat hippocampus synaptosomes, 3H norepinephrine about 10 nM, 37° C., read-out: Norepinephrine IC50 (inhibition of neurotransmitter uptake in synaptosomes); for inhibition of norepinephrine and serotonin uptake (in words): synaptosomes, both transmitters
Procedure: as §1, §2, §3

**Q.** Which results are given for CN(C)CCCN1c2ccccc2CCc2ccccc21 [Imipramine, reference compound]?
**A.** IC50 (serotonin uptake): 130 nM; IC50 (norepinephrine uptake): 14 nM; inhibition of norepinephrine and serotonin uptake (in words) (norepinephrine uptake): inhibits both norepinephrine uptake and serotonin uptake at low concentration

**Q.** How did the IC50 (serotonin uptake) turn out when COc1ccc(OCC2(c3ccccc3)CCNCCO2)cc1.Cl (stereo not drawn) [Example 5, 7-phenyl-7-(4-methoxyphenoxymethyl)-hexahydro-1,4-oxazepine hydrochloride] was run?
**A.** 100 nM

**Q.** And the IC50 (norepinephrine uptake)?
**A.** 86 nM

**Q.** And the “inhibition of norepinephrine and serotonin uptake (in words)” value (norepinephrine uptake)?
**A.** inhibit the uptake of both transmitters at an equally low concentration

**Q.** What does the source list for CN1CCOC(COc2ccccc2Cl)(c2ccccc2)CC1 (stereo not drawn) [Example 7]?
**A.** IC50 (serotonin uptake): 300 nM; IC50 (norepinephrine uptake): 98 nM; inhibition of norepinephrine and serotonin uptake (in words) (norepinephrine uptake): inhibit the uptake of both transmitters at an equally low concentration

**Q.** For Clc1ccc(OCC2(c3ccccc3)CCNCCO2)cc1 (stereo not drawn) [Example 4, 7-phenyl-7-(4-chlorophenoxymethyl)-hexahydro-1,4-oxazepine], which IC50 (serotonin uptake) is on record?
**A.** 39 nM

**Q.** What about the IC50 (norepinephrine uptake) of the same compound?
**A.** 74 nM

**Q.** What about the “inhibition of norepinephrine and serotonin uptake (in words)” value (norepinephrine uptake) of the same compound?
**A.** inhibit the uptake of both transmitters at an equally low concentration

**Q.** Which IC50 (serotonin uptake) does the source give for c1ccc(OCC2(c3ccccc3)CCNCCO2)cc1 (stereo not drawn) [Example 1, 7-phenyl-7-phenoxymethyl-hexahydro-1,4-oxazepine hydrochloride] here?
**A.** 190 nM

**Q.** And the IC50 (norepinephrine uptake)?
**A.** 15 nM

**Q.** Which IC50 (serotonin uptake) does the source give for COc1ccccc1OCC1(c2ccccc2)CCNCCO1 (stereo not drawn) [Example 3, 7-phenyl-7-(2-methoxyphenoxymethyl)-hexahydro-1,4-oxazepine hydrochloride] here?
**A.** 190 nM

**Q.** What about the IC50 (norepinephrine uptake) of the same compound?
**A.** 5.9 nM

**Q.** What does the source list for Clc1ccccc1OCC1(c2ccccc2)CCNCCO1 (stereo not drawn) [Example 2, 7-phenyl-7-(2-chlorophenoxymethyl)-hexahydro-1,4-oxazepine hydrochloride]?
**A.** IC50 (serotonin uptake): 460 nM; IC50 (norepinephrine uptake): 2.8 nM
